Active and inactive are the calls of the source. The calls are words filed in the database; no cut-off is given here.

The values below come from ChEMBL document CHEMBL1155836, “Discovery of imidazole carboxamides as potent and selective CCK1R agonists” (Bioorg Med Chem Lett, 2008).

Experiment [1] addresses T1, Cholecystokinin receptor type A (Homo sapiens) (UniProt P32238).
T1 sequence (whole entry): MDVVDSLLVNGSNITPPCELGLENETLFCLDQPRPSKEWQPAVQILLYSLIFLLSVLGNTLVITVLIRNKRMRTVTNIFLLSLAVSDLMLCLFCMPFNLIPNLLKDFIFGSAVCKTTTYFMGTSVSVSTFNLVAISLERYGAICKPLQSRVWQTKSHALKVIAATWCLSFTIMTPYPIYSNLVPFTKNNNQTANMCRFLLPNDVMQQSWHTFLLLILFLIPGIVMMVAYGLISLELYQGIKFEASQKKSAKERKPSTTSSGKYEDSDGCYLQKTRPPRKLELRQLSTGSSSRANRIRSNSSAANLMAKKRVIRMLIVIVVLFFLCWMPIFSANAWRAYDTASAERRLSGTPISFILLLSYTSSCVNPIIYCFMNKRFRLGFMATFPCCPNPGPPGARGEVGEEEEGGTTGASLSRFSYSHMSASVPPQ
Nature of the experiment: Agonist activity against human CCK1 receptor assessed as receptor activation at 10000 nM. Type of experiment: functional.

Experiment [2] addresses T2, Cholecystokinin receptor type A (Homo sapiens, UniProt P32238).
T2 sequence (P32238 whole entry): T1 sequence (whole entry)
As to the kind of experiment: Agonist activity against human CCK1 receptor. It is filed as functional.

Experiment [3] has as its target T3, Gastrin/cholecystokinin type B receptor (Homo sapiens) (UniProt P32239).
T3 sequence (whole entry): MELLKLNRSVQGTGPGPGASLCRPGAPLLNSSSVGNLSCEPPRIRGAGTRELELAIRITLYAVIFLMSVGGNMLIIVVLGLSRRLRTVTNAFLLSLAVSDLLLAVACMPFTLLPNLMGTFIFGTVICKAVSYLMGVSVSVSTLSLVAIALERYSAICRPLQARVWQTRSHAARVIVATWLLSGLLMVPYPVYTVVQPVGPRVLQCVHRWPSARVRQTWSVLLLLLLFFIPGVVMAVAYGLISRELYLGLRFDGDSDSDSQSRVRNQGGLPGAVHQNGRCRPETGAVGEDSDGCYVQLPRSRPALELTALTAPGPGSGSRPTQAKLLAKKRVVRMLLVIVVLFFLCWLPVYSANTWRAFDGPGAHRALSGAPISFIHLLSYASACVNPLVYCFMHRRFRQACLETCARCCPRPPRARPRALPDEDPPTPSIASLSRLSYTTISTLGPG
Nature of the experiment: Agonist activity against human CCK2 receptor. Type of experiment: functional.

The target of experiment [4] is T3, Gastrin/cholecystokinin type B receptor (Homo sapiens). As to the kind of experiment: Agonist activity against human CCK2 receptor assessed as receptor activation at 10000 nM. It is filed as functional.
Experiment [5] deals with T2, Cholecystokinin receptor type A. Nature of the experiment: Inhibition of human CCK1 receptor.

`CCOc1cccc(-n2cc(C(=O)N3CCN(c4ccc5ccccc5c4)CC3)nc2-c2ccc(F)cc2F)c1`: the Activity in experiment [1] was 103%; in experiment [4] it was less than 12%. In experiment [2], this molecule had a concentration giving a half-maximal response (EC50) of 1.1 nM. The result in experiment [3] was inactive. Also, in experiment [5], half-maximal inhibition (IC50) was put at 1 nM.
On the same counts, the results for `COc1cccc(-n2cc(C(=O)N3CCN(c4ccc(Cl)c(Cl)c4)CC3)nc2-c2ccc(C)cc2)c1` are 99%, less than 20%, 25 nM, “inactive” and 8 nM.
`CCc1cccc(-n2cc(C(=O)N3CCN(c4ccc5ccccc5c4)CC3)nc2-c2ccc(C)cc2)c1`: the Activity in experiment [1] is 101%; in experiment [4] it was less than 21%. The molecule also registered an EC50 in experiment [2] of 65 nM. In experiment [3], the outcome was inactive. The same molecule yielded an IC50 in experiment [5] of 43 nM.
Turning to `Cc1ccc(-c2nc(C(=O)N3CCN(c4ccc5ccccc5c4)CC3)cn2-c2cccc(O)c2)cc1`, the Activity in experiment [1] was 102%; in experiment [4] it was less than 21%. Further, the EC50 in experiment [2] came out at 82 nM. Also, in experiment [3], the outcome was inactive. In experiment [5], this molecule yielded an IC50 of 22 nM.
As to `CCOc1cccc(-n2cc(C(=O)N3CCN(c4ccc5ccccc5c4)CC3)nc2-c2ccc(C)cc2F)c1`, the results for the Activity in experiment [1] and in experiment [4] were 116% and less than 12%, respectively. The midpoint of the response in experiment [2], the EC50, lay at 1.9 nM. In addition, the outcome in experiment [3] was inactive. Besides, the IC50 in experiment [5] stood at 0.56 nM.
For `COc1cccc(-n2cc(C(=O)N3CCN(c4cc5ccccc5cn4)CC3)nc2-c2ccc(C)cc2)c1`, the Activity in experiment [1] is 89%; in experiment [4], less than 20%. The response in experiment [2] was half-maximal at 8.4 nM (EC50). Moreover, the outcome in experiment [3] was inactive. In addition, in experiment [5], 1.9 nM corresponded to half-maximal inhibition (IC50).
Take `CCOc1cccc(-n2cc(C(=O)N3CCN(c4ccc5ccccc5c4)CC3)nc2-c2cccc(F)c2)c1`: the Activity was 106% in experiment [1] and less than 12% in experiment [4]. The midpoint of the response in experiment [2], the EC50, lay at 105 nM. The result in experiment [3] was inactive. In experiment [5], this molecule showed an IC50 of 35 nM.
For `COc1cccc(-c2cc(C(=O)N3CCN(c4cccc(Cl)c4)CC3)nn2-c2ccc(C)cc2)c1`, the Activity in experiment [1] was found to be 82%; in experiment [4], 4.4%. The EC50 in experiment [2] came out at 308 nM. The midpoint of inhibition in experiment [5], the IC50, lay at 41 nM.
`CCOc1cccc(-n2cc(C(=O)N3CCN(c4ccc5ccccc5c4)CC3)nc2-c2ccc(F)cc2)c1`: the Activity was 96% in experiment [1] and less than 12% in experiment [4]. For the same molecule, a half-maximal effect in experiment [2] (EC50) was put at 2.9 nM. Further, in experiment [3], the outcome was inactive. Also, the IC50 in experiment [5] worked out at 1.9 nM.
In the case of `COc1cccc(-n2cc(C(=O)N3CCN(c4cc5ccccc5cc4C(=O)O)CC3)nc2-c2ccc(C)cc2)c1`, the figures for the Activity in experiment [1] and in experiment [4] were 92% and less than 20%, respectively. This molecule displayed an EC50 in experiment [2] of 0.4 nM. For the same molecule, the outcome in experiment [3] was inactive. Moreover, in experiment [5], the IC50 worked out at 1.3 nM.
As for `CCOc1cccc(-n2cc(C(=O)N3CCN(c4ccc5ccccc5c4)CC3)nc2-c2ccccc2F)c1`, the Activity was 110% in experiment [1] and less than 12% in experiment [4]. Further, the EC50 in experiment [2] came out at 6.3 nM. Also, the result in experiment [3] was inactive. This molecule came in with an IC50 in experiment [5] of 1.9 nM.
In the case of `COc1cccc(-n2cc(C(=O)N3CCN(c4cnc5ccccc5c4)CC3)nc2-c2ccc(C)cc2)c1`, the results for the Activity in experiment [1] and in experiment [4] were 92% and less than 20%, respectively. In experiment [2], this molecule gave an EC50 of 1.1 nM. The result in experiment [3] was inactive. This molecule came in with a half-maximal inhibitory concentration (IC50) in experiment [5] of 1.3 nM.
As to `Cc1ccc(-c2nc(C(=O)N3CCN(c4ccc5ccccc5c4)CC3)cn2-c2ccc3c(c2)OCCO3)cc1`, the Activity was 89% in experiment [1] and less than 21% in experiment [4]. In experiment [2], this molecule had an EC50 of 0.99 nM. The result in experiment [3] was inactive. In experiment [5], the IC50 turned out to be 0.42 nM.
On the same counts, the results for `Cc1ccc(-c2nc(C(=O)N3CCN(c4ccc5ccccc5c4)CC3)cn2-c2cccc(OCC(F)(F)F)c2)cc1` are 95%, less than 21%, 1350 nM, “inactive” and 200 nM.
On to `Cc1ccc(-c2nc(C(=O)N3CCN(c4ccc5ccccc5c4)CC3)cn2-c2cccc(OC(C)C)c2)cc1`, for which the Activity in experiment [1] was 94%; in experiment [4], less than 21%. This molecule also yielded an EC50 in experiment [2] of 53 nM. Moreover, the result in experiment [3] was inactive. For the same molecule, inhibition in experiment [5] was half-maximal at 30 nM (IC50).
On the same counts, the results for `CCOc1cccc(-n2cc(C(=O)N3CCN(c4ccc5ccccc5c4)CC3)nc2-c2ccc(CC)cc2)c1` are 83%, less than 12%, 175 nM, “inactive” and 43 nM.
For `COc1ccc(-n2cc(C(=O)N3CCN(c4ccc5ccccc5c4)CC3)nc2-c2ccc(C)cc2)cc1`, the values for the Activity in experiment [1] and in experiment [4] were 110% and less than 21%, respectively. The EC50 in experiment [2] was determined as 20 nM. Besides, the result in experiment [3] was inactive. The IC50 in experiment [5] stood at 6.9 nM.
As for `COc1cccc(-n2cc(C(=O)N3CCN(c4cc(C(=O)O)c5ccccc5c4)CC3)nc2-c2ccc(C)cc2)c1`, the Activity in experiment [1] is 85%; in experiment [4], less than 20%. Also, in experiment [2], the EC50 stood at 0.078 nM. In addition, the outcome in experiment [3] was inactive. Inhibition in experiment [5] was half-maximal at 0.14 nM (IC50).
In the case of `CCOc1cccc(-n2cc(C(=O)N3CCN(c4ccc5ccccc5c4)CC3)nc2-c2c(F)cccc2F)c1`, the Activity in experiment [1] was 109%; in experiment [4], less than 12%. Also, in experiment [2], the EC50 worked out at 4.4 nM. Moreover, the outcome in experiment [3] was inactive. Moreover, in experiment [5], the IC50 came to 1.9 nM.
Take `Cc1ccc(-c2nc(C(=O)N3CCN(c4ccc5ccccc5c4)CC3)cn2-c2cccc(OC(F)(F)F)c2)cc1`: the Activity is 66% in experiment [1] and less than 21% in experiment [4]. The same molecule came in with an EC50 in experiment [2] of 3150 nM. For the same molecule, in experiment [3], the result was inactive. Half-maximal inhibition in experiment [5] (IC50) required 130 nM.
On the same counts, the results for `CCOc1cccc(-n2cc(C(=O)N3CCN(c4ccc5ccccc5c4)CC3)nc2-c2ccccc2)c1` are 100%, less than 12%, 7.4 nM, “inactive” and 3.4 nM.
Turning to `COc1cccc(-n2cc(C(=O)N3CCN(c4ccc5ccccc5n4)CC3)nc2-c2ccc(C)cc2)c1`, the Activity in experiment [1] is 89%; in experiment [4] it was less than 20%. Besides, the EC50 in experiment [2] amounted to 43 nM. The outcome in experiment [3] was inactive. In experiment [5], the IC50 amounted to 16 nM.
In the case of `CCCOc1cccc(-n2cc(C(=O)N3CCN(c4ccc5ccccc5c4)CC3)nc2-c2ccc(C)cc2)c1`, the results for the Activity in experiment [1] and in experiment [4] were 89% and less than 21%, respectively. The EC50 in experiment [2] came to 962 nM. The result in experiment [3] was inactive. For the same molecule, inhibition in experiment [5] was half-maximal at 160 nM (IC50).
Regarding `CCOc1cccc(-n2cc(C(=O)N3CCN(c4ccc5ccccc5c4)CC3)nc2-c2ccc(C)cc2)c1`, the Activity in experiment [1] is 93%; in experiment [4], less than 12%. In addition, the midpoint of the response in experiment [2], the EC50, lay at 6.6 nM. In addition, the result in experiment [3] was inactive. This molecule also had an IC50 in experiment [5] of 2.3 nM.
As to `CCOc1cccc(-n2cc(C(=O)N3CCN(c4ccc5ccccc5c4)CC3)nc2-c2ccc(Cl)cc2)c1`, the figures for the Activity in experiment [1] and in experiment [4] were 119% and less than 12%, respectively. Besides, the concentration for a half-maximal effect (EC50) in experiment [2] came to 5.5 nM. Besides, in experiment [3], the result was inactive. This molecule returned an IC50 in experiment [5] of 5.6 nM.
For `COc1cccc(-n2cc(C(=O)N3CCN(c4cccc(Cl)c4)CC3)nc2-c2ccc(C)cc2)c1` the same measures were 89%, less than 20%, 74 nM, “inactive” and 14 nM.
`COc1cccc(-n2cc(C(=O)N3CCN(c4cccc5ccccc45)CC3)nc2-c2ccc(C)cc2)c1`: the Activity was 30% in experiment [1] and less than 20% in experiment [4]. The molecule further registered an EC50 in experiment [2] of 5370 nM. Also, the result in experiment [3] was inactive. The IC50 in experiment [5] worked out at 630 nM.
In the case of `Cc1ccc(-c2nc(C(=O)N3CCN(c4ccc5ccccc5c4)CC3)cn2-c2cccc3c2OCCO3)cc1`, the Activity in experiment [1] is 70%; in experiment [4], less than 21%. The response in experiment [2] was half-maximal at 471 nM (EC50). In addition, the result in experiment [3] was inactive. This molecule also had an IC50 in experiment [5] of 140 nM.
On the same counts, the results for `COc1cccc(-n2cc(C(=O)N3CCN(c4ccc5cnccc5c4)CC3)nc2-c2ccc(C)cc2)c1` are 86%, less than 20%, 106 nM, “inactive” and 190 nM.
